Results as given in US4784999A, “Novel treatment” (Beecham Wuelfing GmbH & Co. KG, priority 1986, dated 1988).

Assays:
[1] = tested on: Triethyltin-induced cerebral oedema; test: Triethyltin-induced cerebral oedema in the rat; type: in vivo; conditions: 2×50 mg/kg orally, twice daily for 5 days of triethyltin intoxication; Wistar rats; brain water content; p<0.05 (student's t-test)
Protocol: The cerebral oedema is induced by oral administrations repeated for 5 consecutive days--one administration per day--of triethyltin chloride at a dose of 2 mg/kg. The test compound is also administered orally twice daily as aqueous solution or suspension at a dose of 1 ml/100 g body-weight; these administrations are given during the 5 days of intoxication with tin. Three groups of 10 male specific pathogen-free (SPF) Wistar rats of 280±10 g body-weight are used:
1 group intoxicated with triethyltin
1 group intoxicated with triethyltin and treated with the studied compound The rats are killed on the evening of the fifth day; the brain is removed, weighed fresh and after desiccation to constant weight and the water content of each brain is calculated [H2 O]=fresh weight-dry weight.
The following are then calculated the mean water content (M+Sm %) of each group; the protection index P due to the administered compound: [formula]

[2] = tested on: recall latency in the gerbil following transient forebrain ischaemia; test: Gerbil Ischaemic Deficit Passive Avoidance Test; type: in vivo, Mongolian gerbils; conditions: Ischaemia and Test Compound, 10 mg/kg p.o., seven administrations; gerbils after 5 min bilateral carotid ligation; significantly different from ischaemic controls (p<0.05)
Protocol: Mongolian gerbils were conditioned to avoid entering a dark compartment by means of a footshock (maximally 50 V, 2 s duration) received when entering from the light section of a two compartment box. Recollection of the footshock was examined 24 h later by replacing the gerbils in the two compartment box and measuring the recall latency, the time taken to re-enter the dark compartment.
A learning or memory deficit was induced in the gerbils by a transient (5 min) bilateral carotid artery ligation, performed 24 h prior to conditioning, under light hexobarbital anaesthesia.
Compounds, being examined for an effect on learning or memory in gerbils which had undergone carotid occlusion, were administered seven times during the experiment The initial administration was during the period of forebrain ischaemia, the third and seventh administrations were 10 min prior to conditioning and recall testing, respectively, and the remainder were given at intermediate time points.
A long recall latency indicates good information acquisition or retrieval.

[3] = tested on: rat ischaemic gastrocnemius muscle; test: Oxygen tension (pO2) of rat ischaemic gastrocnemius muscle; type: in vivo; conditions: 0.5 mg/kg administered intravenously; ischaemic hindlimb gastrocnemius muscle, anaesthetized rats; n=12; p<0.01 signed rank test
[4] = target: cAMP phosphodiesterase of rat brain; test: Inhibitory activity on cAMP phosphodiesterase of rat brain (Dixon plot); type: biochemical; conditions: homogenates of rat brain; 0.31 μM cyclic AMP as substrate; extrapolated from Dixon plot; read-out: apparent Ki
Protocol: The activity of cyclic AMP phosphodiesterase in homogenates of rat brain was measured in the presence of various concentrations of the compound 1,3-di-n-butyl-7-(2-oxypropyl)xanthine using 0.31 μM cyclic AMP as substration The reciprocal of the reaction rate was plotted on the y axis against each concentration of the compound on the x axis (Dixon plot). The apparent Ki value was estimated by extrapolating the steeper linear portion of the Dixon plot to the x axis and obtaining the negative intercept on the x axis.

CCCCn1c(=O)c2c(ncn2CC(C)=O)n(CCCC)c1=O [1,3-di-n-butyl-7-(2-oxypropyl)xanthine]
protection index P [1]: 65%
Percentage of animals with recall latencies >60s [2]: 36
mean (±SEM) increase in pO2 [3]: 5.7±2.1 torr
Ki [4]: 64 µM
